Data on 21 compounds can be found in US7618960B2, “Morpholine type cinnamide compound” (Eisai R&D Management Co., Ltd., priority 2005, dated 2009).

Each structure is given as a SMILES string.

The assay has as its system Aβ42 production. Briefly: Quantification of Aβ peptide in culture of neurons from rat fetus brain (Aβ ELISA). The class given is cell-based. Conditions: Neuron, 72 h; rat primary neuronal culture (cerebral cortex, embryonic day 18 Wistar rats); medium collected three days after addition of compound; Aβx-42 ELISA; read-out: Activity for reducing Aβ42 production IC50. The protocol: Quantification of Aβ Peptide in Culture of Neurons from Rat Fetus Brain
(1) Rat Primary Neuronal Culture
Primary neuronal cultures were prepared from the cerebral cortex of embryonic day 18 Wistar rats (Charles River Japan, Yokohama, Japan). Specifically, the embryos were aseptically removed from pregnant rats under ether anesthesia. The brain was isolated from the embryo and immersed in an ice-cold L-15 medium (Invitrogen Corp. Cat #11415-064, Carlsbad, Calif., USA, or SIGMA L1518, for example). The cerebral cortex was collected from the isolated brain under a stereoscopic microscope. The cerebral cortex fragments collected were enzymatically treated in an enzyme solution containing 0.25% trypsin (Invitrogen Corp. Cat #15050-065, Carlsbad, Calif., USA) and 0.01% DNase (Sigma D5025, St. Louis, Mo., USA) at 37° C. for 30 minutes to disperse the cells. Here, the enzymatic reaction was stopped by adding inactivated horse serum to the solution. The enzymatically treated solution was centrifuged at 1,500 rpm for five minutes to remove the supernatant. 5 to 10 ml of a medium was added to the resulting cell mass. Neurobasal medium (Invitrogen Corp. Cat #21103-049, Carlsbad, Calif., USA) supplemented with 2% B27 supplement (Invitrogen Corp. Cat #17504-044, Carlsbad, Calif., USA), 25 μM 2-mercaptoethanol (2-ME, WAKO Cat #139-06861, Osaka, Japan), 0.5 mM L-glutamine (Invitrogen Corp. Cat #25030-081, Carlsbad, Calif., USA), and Antibiotics-Antimycotics (Invitrogen Corp. Cat #15240-062, Carlsbad, Calif., USA) was used as the medium (Neurobasal/B27/2-ME). However, the above Neurobasal medium not supplemented with 2-ME (Neurobasal/B27) was used for the assay. The cells were redispersed by mild pipetting of the cell mass to which the medium was added. The cell dispersion was filtered through a 40-μm nylon mesh (Cell Strainer, Cat #35-2340, Becton Dickinson Labware, Franklin Lakes, N.J., USA) to remove the remaining cell mass, and thus a neuronal cell suspension was obtained. The neuronal cell suspension was diluted with the medium and then plated in a volume of 100 μl/well at an initial cell density of 5×10^5 cells/cm^2 in a 96-well polystyrene culture plate pre-coated with poly-L or D-lysine (Falcon Cat #35-3075, Becton Dickinson Labware, Franklin Lakes, N.J., USA coated with poly-L-lysine using the method shown below, or BIOCOAT™ cell environments Poly-D-lysine cell ware 96-well plate, Cat #35-6461, Becton Dickinson Labware, Franklin Lakes, N.J., USA). Poly-L-lysine coating was carried out as follows. 100 μg/ml of a poly-L-lysine (SIGMA P2636, St. Louis, Mo., USA) solution was aseptically prepared with a 0.15 M borate buffer (pH 8.5). 100 μl/well of the solution was added to the 96-well polystyrene culture plate and incubated at room temperature for one or more hours or at 4° C. overnight or longer. The coated 96-well polystyrene culture plate was washed with sterile water four or more times, and then dried or rinsed with, for example, sterile PBS or medium, and used for cell plating. The plated cells were cultured in the culture plate at 37° C. in 5% […]-95% air for one day. Then, the total amount of the medium was replaced with a fresh Neurobasal™/B27/2-ME medium, and then the cells were cultured for further three days.
The drug was added to the culture plate on Day 4 of culture as follows. The total amount of the medium was removed from the wells, and 180 μl/well of Neurobasal medium not containing 2-ME and containing 2% B-27 (Neurobasal/B27) was added thereto. A solution of the test compound in dimethyl sulfoxide (hereinafter abbreviated as DMSO) was diluted with Neurobasal/B27 so that the initial concentration was at 10-fold of the final concentration. 20 μl/well of the dilution was added to and sufficiently mixed with the medium. The final DMSO concentration was 1% or less. Only DMSO was added to the control group.
The cells were cultured for three days after addition of the compound, and the total amount of the medium was collected. […]

For `COc1cc(/C=C2\O[C@H](C)CN([C@H]3CCOc4ccccc43)C2=O)ccc1-n1cnc(C)c1` [Example 14, (Z)-(R)-4-[(S)-chroman-4-yl]-2-[1-[3-methoxy-4-(4-methyl-1H-imidazol-1-yl)phenyl]methylidene]-6-methylmorpholin-3-one], the IC50 amounted to 146 nM. `COc1cc(/C=C2\OC[C@H]3CCC[C@@H](c4ccc(F)c(F)c4)N3C2=O)ccc1-n1cnc(C)c1` [Example 41]: the IC50 was 141 nM.

As for `COc1cc(/C=C2\OCCN([C@H](c3cc(F)c(F)c(F)c3)[C@@H](C)O)C2=O)ccc1-n1cnc(C)c1` [Example 30, (Z)-4-[(1R,2R)-2-hydroxy-1-(3,4,5-trifluorophenyl)propyl]-2-[1-[3-methoxy-4-(4-methyl-1H-imidazol-1-yl)phenyl]methylidene]morpholin-3-one], the IC50 is 54 nM. The figure for `COc1cc(/C=C2\OC(C)(C)CN([C@@H](CO)c3ccc(F)cc3)C2=O)ccc1-n1cnc(C)c1` [Example 28, (Z)-4-[(R)-1-(4-fluorophenyl)-2-hydroxyethyl]-2-[1-[3-methoxy-4-(4-methyl-1H-imidazol-1-yl)phenyl]methylidene]-6,6-dimethylmorpholin-3-one] is 16 nM. In the case of `COc1cc(/C=C2\OC(C)(C)CN([C@H]3CCOc4ccccc43)C2=O)ccc1-n1cnc(C)c1` [Example 12, (Z)-4-[(S)-chroman-4-yl]-2-[1-[3-methoxy-4-(4-methyl-1H-imidazol-1-yl)phenyl]methylidene]-6,6-dimethylmorpholin-3-one], the IC50 was 101 nM. For the compound `Cc1cn(-c2ccc(/C=C3\O[C@@H](C)CN([C@H](c4ccc(F)c(F)c4)[C@@H](C)O)C3=O)cc2F)cn1` [Example 75, (Z)-(S)-4-[(1R,2R)-1-(3,4-difluorophenyl)-2-hydroxypropyl]-2-[1-[3-fluoro-4-(4-methyl-1H-imidazol-1-yl)phenyl]methylidene]-6-methylmorpholin-3-one], the IC50 was found to be 146 nM. The figure for `COc1cc(/C=C2\O[C@@H](C)CN([C@@H](C)c3ccnc(Cl)c3F)C2=O)ccc1-n1cnc(C)c1` [Example 52, (Z)-(S)-4-[(S)-1-(2-chloro-3-fluoropyridin-4-yl)ethyl]-2-[1-[3-methoxy-4-(4-methyl-1H-imidazol-1-yl)phenyl]methylidene]-6-methylmorpholin-3-one] is 86 nM. In the case of `COc1cc(/C=C2\O[C@@H](C)CN([C@@H](C)c3cc(F)nc(F)c3)C2=O)ccc1-n1cnc(C)c1` [Example 53, (Z)-(S)-4-[(S)-1-(2,6-difluoropyridin-4-yl)ethyl]-2-[1-[3-methoxy-4-(4-methyl-1H-imidazol-1-yl)phenyl]methylidene]-6-methylmorpholin-3-one], the IC50 is 40 nM. Regarding `Cc1cn(-c2ccc(/C=C3\CCCN([C@H](c4cc(F)c(F)c(F)c4)[C@@H](C)O)C3=O)cc2F)cn1` [Example 85, (E)-3-{1-[3-fluoro-4-(4-methyl-1H-imidazol-1-yl)phenyl]methylidene}-1-[(1R,2R)-2-hydroxy-1-(3,4,5-trifluorophenyl)propyl]piperidin-2-one], the IC50 came out at 64 nM. For the compound `COc1cc(/C=C2\OC(C)(C)CN([C@@H](C)c3ccc(F)cc3)C2=O)ccc1-n1cnc(C)c1` [Example 7, (Z)-4-[(S)-1-(4-fluorophenyl)ethyl]-2-[1-[3-methoxy-4-(4-methyl-1H-imidazol-1-yl)phenyl]methylidene]-6,6-dimethylmorpholin-3-one], the half-maximal inhibitory concentration (IC50) came out at 76 nM.

With `COc1cc(/C=C2\O[C@@H](C)CN([C@@H](C)c3ccc(Cl)cn3)C2=O)ccc1-n1cnc(C)c1` [Example 20, (Z)-(S)-4-[(S)-1-(5-chloropyridin-2-yl)ethyl]-2-[1-[3-methoxy-4-(4-methyl-1H-imidazol-1-yl)phenyl]methylidene]-6-methylmorpholin-3-one], the IC50 was 82 nM. To `COc1cc(/C=C2\O[C@@H](C)CN([C@H]3CCOc4ccccc43)C2=O)ccc1-n1cnc(C)c1` [Example 13, (Z)-(S)-4-[(S)-chroman-4-yl]-2-[1-[3-methoxy-4-(4-methyl-1H-imidazol-1-yl)phenyl]methylidene]-6-methylmorpholin-3-one] belongs 129 nM.

Regarding `COc1cc(/C=C2\OC[C@H]3COC[C@@H](c4ccc(F)c(F)c4)N3C2=O)ccc1-n1cnc(C)c1` [Example 109, (6R,9aR)-6-(3,4-difluorophenyl)-3-{1-[3-methoxy-4-(4-methyl-1H-imidazol-1-yl)phenyl]-(Z)-methylidene}tetrahydro[1,4]oxazino[3,4-c][1,4]oxazin-4-one], the IC50 is 100 nM. With `COc1cc(/C=C2\O[C@@H](C)CN([C@H](c3cc(F)c(F)c(F)c3)[C@@H](C)O)C2=O)ccc1-n1cnc(C)c1` [Example 26, (Z)-(S)-4-[(1R,2R)-2-hydroxy-1-(3,4,5-trifluorophenyl)propyl]-2-[1-[3-methoxy-4-(4-methyl-1H-imidazol-1-yl)phenyl]methylidene]-6-methylmorpholin-3-one], the IC50 is 6 nM. For `COc1cc(/C=C2\OC[C@H]3CCC[C@@H](c4cc(F)c(F)c(F)c4)N3C2=O)ccc1-n1cnc(C)c1` [Example 40], the IC50 turned out to be 100 nM. Take `COc1cc(/C=C2\O[C@H](C)CN(Cc3cc(F)c(F)c(F)c3)C2=O)ccc1-n1cnc(C)c1` [Example 4, (Z)-(R)-2-[1-[3-methoxy-4-(4-methyl-1H-imidazol-1-yl)phenyl]methylidene]-6-methyl-4-(3,4,5-trifluorobenzyl)morpholin-3-one]: the IC50 came out at 69 nM. Take `COc1cc(/C=C2\OC(C)(C)CN([C@H](c3cc(F)c(F)c(F)c3)[C@@H](C)O)C2=O)ccc1-n1cnc(C)c1` [Example 27, (Z)-4-[(1R,2R)-2-hydroxy-1-(3,4,5-trifluorophenyl)propyl]-2-[1-[3-methoxy-4-(4-methyl-1H-imidazol-1-yl)phenyl]methylidene]-6,6-dimethylmorpholin-3-one]: the IC50 turned out to be 5 nM. For `COc1cc(/C=C2\OCCN([C@H](c3ccc(F)c(F)c3)[C@@H](C)O)C2=O)ccc1-n1cnc(C)c1` [Example 31, (Z)-4-[(1R,2R)-1-(3,4-difluorophenyl)-2-hydroxypropyl]-2-[1-[3-methoxy-4-(4-methyl-1H-imidazol-1-yl)phenyl]methylidene]morpholin-3-one], the IC50 turned out to be 31 nM. As for `COc1cc(/C=C2\O[C@@H](C)CN([C@@H](C)c3ccc(F)nc3F)C2=O)ccc1-n1cnc(C)c1` [Example 22, (Z)-(S)-4-[(S)-1-(2,6-difluoropyridin-3-yl)ethyl]-2-[1-[3-methoxy-4-(4-methyl-1H-imidazol-1-yl)phenyl]methylidene]-6-methylmorpholin-3-one], the IC50 turned out to be 30 nM. For `COc1cc(/C=C2\OC(C)(C)CN([C@H](c3ccc(F)c(F)c3)[C@@H](C)O)C2=O)ccc1-n1cnc(C)c1` [Example 35, (Z)-4-[(1R,2R)-1-(3,4-difluorophenyl)-2-hydroxypropyl]-2-[1-[3-methoxy-4-(methylimidazol-1-yl)phenyl]methylidene]-6,6-dimethylmorpholin-3-one], the IC50 was determined as 23 nM.

For `COc1cc(/C=C2\O[C@@H](C)CN([C@H](C)c3ccc(Cl)cn3)C2=O)ccc1-n1cnc(C)c1` [Example 21, (Z)-(S)-4-[(R)-1-(5-chloropyridin-2-yl)ethyl]-2-[1-[3-methoxy-4-(4-methyl-1H-imidazol-1-yl)phenyl]methylidene]-6-methylmorpholin-3-one], the IC50 turned out to be 195 nM.
